Results taken from ChEMBL document CHEMBL1177794, “Broad spectrum alkynyl inhibitors of T315I Bcr-Abl” (Bioorg Med Chem Lett, 2010).

Key:
[1] = molecular target: AP2-associated protein kinase 1 (Homo sapiens) (UniProt Q2M2I8); test: Inhibition of AAK1 at 10 uM; details: values are per cent of control
[2] = tested on: Tyrosine-protein kinase ABL1 (Homo sapiens), P00519 [Q252H]; test: Inhibition of non phosphorylated ABL1 Q252H mutant at 10 uM; details: values are per cent of control
[3] = molecular target: Activin receptor type-1 (Homo sapiens) (UniProt Q04771); test: Inhibition of ACVR1 at 10 uM; details: values are per cent of control
[4] = molecular target: RAC-gamma serine/threonine-protein kinase (Homo sapiens) (UniProt Q9Y243); test: Inhibition of AKT3 at 10 uM; details: values are per cent of control
[5] = molecular target: Mitogen-activated protein kinase kinase kinase 6 (Homo sapiens) (UniProt O95382); test: Inhibition of ASK2 at 10 uM; details: values are per cent of control
[6] = molecular target: Aurora kinase C (Homo sapiens) (UniProt Q9UQB9); test: Inhibition of AURKC at 10 uM; details: values are per cent of control
[7] = molecular target: Cytoplasmic tyrosine-protein kinase BMX (Homo sapiens) (UniProt P51813); test: Inhibition of BMX at 10 uM; details: values are per cent of control
[8] = tested on: Serine/threonine-protein kinase B-raf (Homo sapiens), P15056 [V600E]; test: Inhibition of BRAF V600E mutant at 10 uM; details: values are per cent of control
[9] = molecular target: Dual specificity protein kinase CLK4 (Homo sapiens) (UniProt Q9HAZ1); test: Inhibition of CLK4 at 10 uM; details: values are per cent of control
[10] = molecular target: Macrophage colony-stimulating factor 1 receptor (Homo sapiens) (UniProt P07333); test: Inhibition of CSF1R at 10 uM; details: values are per cent of control
[11] = molecular target: Serine/threonine-protein kinase MRCK gamma (Homo sapiens) (UniProt Q6DT37); test: Inhibition of DMPK2 at 10 uM; details: values are per cent of control
[12] = molecular target: Ephrin type-A receptor 6 (Homo sapiens) (UniProt Q9UF33); test: Inhibition of EPHA6 at 10 uM; details: values are per cent of control
[13] = molecular target: Tyrosine-protein kinase Fes/Fps (Homo sapiens) (UniProt P07332); test: Inhibition of FES at 10 uM; details: values are per cent of control
[14] = molecular target: Cyclin-G-associated kinase (Homo sapiens) (UniProt O14976); test: Inhibition of GAK at 10 uM; details: values are per cent of control
[15] = molecular target: Glycogen synthase kinase-3 beta (Homo sapiens) (UniProt P49841); test: Inhibition of GSK3B at 10 uM; details: values are per cent of control
[16] = molecular target: Homeodomain-interacting protein kinase 4 (Homo sapiens) (UniProt Q8NE63); test: Inhibition of HIPK4 at 10 uM; details: values are per cent of control
[17] = tested on: Mast/stem cell growth factor receptor Kit (Homo sapiens), P10721 [A829P]; test: Inhibition of KIT A829P mutant at 10 uM; details: values are per cent of control
[18] = tested on: Mast/stem cell growth factor receptor Kit (Homo sapiens), P10721 [L576P]; test: Inhibition of KIT L576P mutant at 10 uM; details: values are per cent of control
[19] = molecular target: LIM domain kinase 2 (Homo sapiens) (UniProt P53671); test: Inhibition of LIMK2 at 10 uM; details: values are per cent of control
[20] = molecular target: Mitogen-activated protein kinase kinase kinase kinase 4 (Homo sapiens) (UniProt O95819); test: Inhibition of MAP4K4 at 10 uM; details: values are per cent of control
[21] = molecular target: MAP/microtubule affinity-regulating kinase 4 (Homo sapiens) (UniProt Q96L34); test: Inhibition of MARK4 at 10 uM; details: values are per cent of control
[22] = molecular target: Hepatocyte growth factor receptor (Homo sapiens) (UniProt P08581); test: Inhibition of MET at 10 uM
[23] = molecular target: Serine/threonine-protein kinase 24 (Homo sapiens) (UniProt Q9Y6E0); test: Inhibition of MST3 at 10 uM
[24] = molecular target: Myosin light chain kinase, smooth muscle (Homo sapiens) (UniProt Q15746); test: Inhibition of MYLK at 10 uM
[25] = molecular target: Serine/threonine-protein kinase Nek7 (Homo sapiens) (UniProt Q8TDX7); test: Inhibition of NEK7 at 10 uM
[26] = molecular target: Serine/threonine-protein kinase Nek9 (Homo sapiens) (UniProt Q8TD19); test: Inhibition of NEK9 at 10 uM
[27] = molecular target: SRSF protein kinase 3 (Homo sapiens) (UniProt Q9UPE1); test: Inhibition of SRPK3 at 10 uM
[28] = molecular target: Dual specificity testis-specific protein kinase 1 (Homo sapiens) (UniProt Q15569); test: Inhibition of TESK1 at 10 uM
[29] = molecular target: Mitogen-activated protein kinase kinase kinase 20 (Homo sapiens) (UniProt Q9NYL2); test: Inhibition of ZAK at 10 uM; details: values are per cent of control
[30] = molecular target: 3-phosphoinositide-dependent protein kinase 1 (Homo sapiens) (UniProt O15530); test: Inhibition of PDPK1 at 10 uM
[31] = molecular target: Phosphorylase b kinase gamma catalytic chain, liver/testis isoform (Homo sapiens) (UniProt P15735); test: Inhibition of PHKG2 at 10 uM
[32] = tested on: Phosphatidylinositol 4,5-bisphosphate 3-kinase catalytic subunit alpha isoform (Homo sapiens), P42336 [H1047Y]; test: Inhibition of PIK3CA H1047Y mutant at 10 uM
[33] = tested on: Phosphatidylinositol 4,5-bisphosphate 3-kinase catalytic subunit alpha isoform (Homo sapiens), P42336 [Q546K]; test: Inhibition of PIK3CA Q546K mutant at 10 uM
[34] = molecular target: Phosphatidylinositol 4,5-bisphosphate 3-kinase catalytic subunit delta isoform (Homo sapiens) (UniProt O00329); test: Inhibition of PIK3CD at 10 uM
[35] = molecular target: Phosphatidylinositol 4,5-bisphosphate 3-kinase catalytic subunit gamma isoform (Homo sapiens) (UniProt P48736); test: Inhibition of PIK3CG at 10 uM
[36] = molecular target: Serine/threonine-protein kinase pim-3 (Homo sapiens) (UniProt Q86V86); test: Inhibition of PIM3 at 10 uM
[37] = molecular target: Epithelial discoidin domain-containing receptor 1 (Homo sapiens) (UniProt Q08345); test: Inhibition of DDR1 at 10 uM; values are per cent of control
[38] = molecular target: Mitogen-activated protein kinase 9 (Homo sapiens) (UniProt P45984); test: Inhibition of JNK2 at 10 uM; values are per cent of control
[39] = molecular target: Mitogen-activated protein kinase kinase kinase 7 (Homo sapiens) (UniProt O43318); test: Inhibition of TAK1 at 10 uM; values are per cent of control
[40] = molecular target: Receptor tyrosine-protein kinase erbB-2 (Homo sapiens) (UniProt P04626); test: Inhibition of ERBB2 at 10 uM; values are per cent of control
[41] = molecular target: Receptor tyrosine-protein kinase erbB-3 (Homo sapiens) (UniProt P21860); test: Inhibition of ERBB3 at 10 uM; values are per cent of control
[42] = molecular target: Casein kinase I isoform alpha (Homo sapiens) (UniProt P48729); test: Inhibition of CSNK1A1 at 10 uM; values are per cent of control
[43] = molecular target: Casein kinase I isoform gamma-3 (Homo sapiens) (UniProt Q9Y6M4); test: Inhibition of CSNK1G3 at 10 uM; values are per cent of control

Sequence of Serine/threonine-protein kinase Nek7 (Homo sapiens) (Q8TDX7 whole entry, looked up): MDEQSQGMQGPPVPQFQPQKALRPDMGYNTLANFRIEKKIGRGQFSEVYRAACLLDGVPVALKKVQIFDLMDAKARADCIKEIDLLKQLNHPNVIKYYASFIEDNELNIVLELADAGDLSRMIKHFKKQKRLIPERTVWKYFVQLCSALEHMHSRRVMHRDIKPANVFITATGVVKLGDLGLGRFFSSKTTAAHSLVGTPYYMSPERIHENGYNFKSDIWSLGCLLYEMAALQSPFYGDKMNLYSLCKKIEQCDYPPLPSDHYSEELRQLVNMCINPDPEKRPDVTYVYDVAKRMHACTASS
Sequence of Epithelial discoidin domain-containing receptor 1 (Homo sapiens) (Q08345 whole entry, the tested form may be a part): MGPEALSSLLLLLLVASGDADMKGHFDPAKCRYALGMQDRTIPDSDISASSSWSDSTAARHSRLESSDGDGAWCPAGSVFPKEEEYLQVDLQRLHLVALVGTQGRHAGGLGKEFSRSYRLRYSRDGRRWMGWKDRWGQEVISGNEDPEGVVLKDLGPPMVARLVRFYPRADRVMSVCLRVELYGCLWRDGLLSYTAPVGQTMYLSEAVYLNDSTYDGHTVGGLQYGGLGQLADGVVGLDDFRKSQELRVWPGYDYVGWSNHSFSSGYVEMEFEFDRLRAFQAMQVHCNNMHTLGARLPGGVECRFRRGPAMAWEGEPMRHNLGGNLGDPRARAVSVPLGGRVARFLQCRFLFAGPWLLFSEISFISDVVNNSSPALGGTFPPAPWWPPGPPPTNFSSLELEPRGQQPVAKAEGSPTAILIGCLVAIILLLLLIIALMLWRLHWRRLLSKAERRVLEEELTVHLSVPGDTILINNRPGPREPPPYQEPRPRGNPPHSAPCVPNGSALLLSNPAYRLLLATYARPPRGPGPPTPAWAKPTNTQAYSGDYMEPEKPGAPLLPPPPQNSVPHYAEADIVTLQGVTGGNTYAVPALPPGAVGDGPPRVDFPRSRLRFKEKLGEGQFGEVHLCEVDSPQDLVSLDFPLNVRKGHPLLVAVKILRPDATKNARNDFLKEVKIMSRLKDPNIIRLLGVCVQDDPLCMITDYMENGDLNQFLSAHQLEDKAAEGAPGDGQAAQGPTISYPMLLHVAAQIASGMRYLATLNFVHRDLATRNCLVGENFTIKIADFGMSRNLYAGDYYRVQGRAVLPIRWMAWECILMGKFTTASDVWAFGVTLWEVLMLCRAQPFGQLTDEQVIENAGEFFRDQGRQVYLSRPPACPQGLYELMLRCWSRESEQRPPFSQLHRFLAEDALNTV
Sequence of Dual specificity testis-specific protein kinase 1 (Homo sapiens) (Q15569 whole entry, looked up): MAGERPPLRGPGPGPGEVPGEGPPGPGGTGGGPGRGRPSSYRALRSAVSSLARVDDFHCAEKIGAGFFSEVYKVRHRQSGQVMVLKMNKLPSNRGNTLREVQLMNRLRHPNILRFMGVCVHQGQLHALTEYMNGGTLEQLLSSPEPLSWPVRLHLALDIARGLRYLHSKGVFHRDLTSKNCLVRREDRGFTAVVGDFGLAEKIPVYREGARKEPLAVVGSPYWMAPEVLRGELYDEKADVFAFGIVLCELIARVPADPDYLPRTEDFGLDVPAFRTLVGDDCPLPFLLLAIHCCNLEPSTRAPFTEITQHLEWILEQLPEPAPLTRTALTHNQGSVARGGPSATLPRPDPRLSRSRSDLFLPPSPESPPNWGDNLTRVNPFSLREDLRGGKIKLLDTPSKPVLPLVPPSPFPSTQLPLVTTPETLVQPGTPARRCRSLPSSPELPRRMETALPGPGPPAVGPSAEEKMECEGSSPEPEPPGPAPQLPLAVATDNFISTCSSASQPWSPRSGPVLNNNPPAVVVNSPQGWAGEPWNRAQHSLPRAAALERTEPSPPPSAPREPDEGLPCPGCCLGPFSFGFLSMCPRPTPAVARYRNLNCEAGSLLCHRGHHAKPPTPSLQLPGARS
Sequence of Receptor tyrosine-protein kinase erbB-2 (Homo sapiens) (P04626 whole entry): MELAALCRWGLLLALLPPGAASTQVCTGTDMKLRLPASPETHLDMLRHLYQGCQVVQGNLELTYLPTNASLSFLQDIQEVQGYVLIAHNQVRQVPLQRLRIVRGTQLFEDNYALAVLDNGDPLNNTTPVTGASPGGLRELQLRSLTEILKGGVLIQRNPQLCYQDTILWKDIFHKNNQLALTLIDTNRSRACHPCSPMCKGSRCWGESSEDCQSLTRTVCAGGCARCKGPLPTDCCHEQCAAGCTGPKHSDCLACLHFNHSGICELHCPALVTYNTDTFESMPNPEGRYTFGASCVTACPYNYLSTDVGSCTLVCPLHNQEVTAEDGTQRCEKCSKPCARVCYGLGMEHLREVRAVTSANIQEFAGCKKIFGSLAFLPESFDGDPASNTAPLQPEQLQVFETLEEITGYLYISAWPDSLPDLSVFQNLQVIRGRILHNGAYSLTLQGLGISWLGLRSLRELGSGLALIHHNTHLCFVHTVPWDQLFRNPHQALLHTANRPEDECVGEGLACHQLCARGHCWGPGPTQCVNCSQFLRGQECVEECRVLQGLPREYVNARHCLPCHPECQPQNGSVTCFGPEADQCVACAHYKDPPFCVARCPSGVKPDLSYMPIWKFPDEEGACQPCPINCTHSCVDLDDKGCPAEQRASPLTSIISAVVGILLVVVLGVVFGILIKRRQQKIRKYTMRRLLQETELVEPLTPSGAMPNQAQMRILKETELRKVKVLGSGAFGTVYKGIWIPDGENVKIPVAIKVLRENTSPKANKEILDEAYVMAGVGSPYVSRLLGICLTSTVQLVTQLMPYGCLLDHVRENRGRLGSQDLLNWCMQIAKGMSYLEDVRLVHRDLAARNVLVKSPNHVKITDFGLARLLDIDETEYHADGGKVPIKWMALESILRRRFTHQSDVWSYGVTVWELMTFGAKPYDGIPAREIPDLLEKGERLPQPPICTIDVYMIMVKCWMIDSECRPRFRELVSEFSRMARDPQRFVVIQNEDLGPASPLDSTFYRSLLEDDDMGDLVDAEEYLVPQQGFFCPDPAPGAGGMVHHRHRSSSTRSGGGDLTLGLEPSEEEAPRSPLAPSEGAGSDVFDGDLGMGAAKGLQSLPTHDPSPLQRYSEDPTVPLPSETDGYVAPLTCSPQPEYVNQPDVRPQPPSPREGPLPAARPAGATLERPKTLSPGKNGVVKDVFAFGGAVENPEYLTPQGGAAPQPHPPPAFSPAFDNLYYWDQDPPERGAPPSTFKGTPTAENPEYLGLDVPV
Sequence of Serine/threonine-protein kinase B-raf (Homo sapiens), P15056 [V600E] (P15056 whole entry V600E): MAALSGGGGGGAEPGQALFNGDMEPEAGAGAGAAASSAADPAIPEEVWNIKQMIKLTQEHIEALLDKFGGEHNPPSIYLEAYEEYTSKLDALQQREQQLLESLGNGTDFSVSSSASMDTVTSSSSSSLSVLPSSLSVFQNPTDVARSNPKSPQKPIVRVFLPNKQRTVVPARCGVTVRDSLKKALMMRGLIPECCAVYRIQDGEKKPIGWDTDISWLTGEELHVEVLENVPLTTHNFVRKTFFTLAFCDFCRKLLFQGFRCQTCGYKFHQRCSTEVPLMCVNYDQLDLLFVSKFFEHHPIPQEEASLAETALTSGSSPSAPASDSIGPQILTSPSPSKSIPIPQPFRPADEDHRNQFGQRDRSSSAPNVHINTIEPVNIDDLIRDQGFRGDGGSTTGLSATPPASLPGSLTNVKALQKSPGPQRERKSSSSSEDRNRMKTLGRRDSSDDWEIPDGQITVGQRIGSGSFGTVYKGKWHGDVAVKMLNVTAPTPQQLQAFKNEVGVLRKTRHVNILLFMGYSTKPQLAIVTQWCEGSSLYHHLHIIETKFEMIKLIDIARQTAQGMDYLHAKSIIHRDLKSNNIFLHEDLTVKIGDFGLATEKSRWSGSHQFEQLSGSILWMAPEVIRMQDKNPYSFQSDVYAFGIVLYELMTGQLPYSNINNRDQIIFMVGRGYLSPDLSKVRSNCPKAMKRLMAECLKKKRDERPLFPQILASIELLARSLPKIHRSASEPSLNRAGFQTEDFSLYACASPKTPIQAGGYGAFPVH
Sequence of Mitogen-activated protein kinase kinase kinase 7 (Homo sapiens) (O43318 whole entry): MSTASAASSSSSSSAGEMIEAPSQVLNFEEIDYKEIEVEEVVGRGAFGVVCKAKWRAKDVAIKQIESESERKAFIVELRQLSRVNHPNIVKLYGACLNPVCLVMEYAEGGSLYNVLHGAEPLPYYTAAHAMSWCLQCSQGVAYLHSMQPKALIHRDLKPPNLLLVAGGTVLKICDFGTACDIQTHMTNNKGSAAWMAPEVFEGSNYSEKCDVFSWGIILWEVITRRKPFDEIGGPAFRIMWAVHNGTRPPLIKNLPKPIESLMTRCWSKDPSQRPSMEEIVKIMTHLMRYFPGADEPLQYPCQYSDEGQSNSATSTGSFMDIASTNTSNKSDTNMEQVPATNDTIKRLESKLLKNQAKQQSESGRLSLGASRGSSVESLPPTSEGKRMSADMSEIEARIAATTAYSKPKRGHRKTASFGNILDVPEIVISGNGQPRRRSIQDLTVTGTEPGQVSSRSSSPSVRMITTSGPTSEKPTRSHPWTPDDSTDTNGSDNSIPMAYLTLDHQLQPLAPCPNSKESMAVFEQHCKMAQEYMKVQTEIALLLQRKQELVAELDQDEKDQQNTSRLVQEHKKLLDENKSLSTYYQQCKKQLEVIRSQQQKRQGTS
Sequence of Dual specificity protein kinase CLK4 (Homo sapiens) (Q9HAZ1 whole entry, looked up): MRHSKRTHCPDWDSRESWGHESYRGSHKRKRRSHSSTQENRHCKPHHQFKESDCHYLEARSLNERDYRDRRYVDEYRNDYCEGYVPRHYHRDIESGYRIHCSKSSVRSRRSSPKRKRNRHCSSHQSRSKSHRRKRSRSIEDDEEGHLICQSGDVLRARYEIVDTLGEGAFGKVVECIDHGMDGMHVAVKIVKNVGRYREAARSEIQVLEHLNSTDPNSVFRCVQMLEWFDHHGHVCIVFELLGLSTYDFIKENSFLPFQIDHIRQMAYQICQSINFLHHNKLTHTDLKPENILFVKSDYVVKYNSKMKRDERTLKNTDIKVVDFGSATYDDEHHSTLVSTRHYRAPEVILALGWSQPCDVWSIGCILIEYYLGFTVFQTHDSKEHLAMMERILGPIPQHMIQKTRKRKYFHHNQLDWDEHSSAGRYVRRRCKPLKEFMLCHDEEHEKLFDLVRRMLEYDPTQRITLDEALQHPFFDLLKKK

CCN1CCN(Cc2ccc(NC(=O)c3ccc(C)c(C#Cc4cnc5[nH]ccc5c4)c3)cc2C(F)(F)F)CC1
residual binding, % of control [1]: 59% | residual binding, % of control [2]: 1.6% | residual binding, % of control [3]: 100% | residual binding, % of control [4]: 82% | residual binding, % of control [5]: 11% | residual binding, % of control [6]: 11% | residual binding, % of control [7]: 2.6% | residual binding, % of control [8]: 0.1% | residual binding, % of control [9]: 32% | residual binding, % of control [10]: 0% | residual binding, % of control [11]: 35% | residual binding, % of control [12]: 0.15% | residual binding, % of control [13]: 0.1% | residual binding, % of control [14]: 2% | residual binding, % of control [15]: 90% | residual binding, % of control [16]: 1.9% | residual binding, % of control [17]: 24% | residual binding, % of control [18]: 0% | residual binding, % of control [19]: 0.35% | residual binding, % of control [20]: 1.8% | residual binding, % of control [21]: 85% | inhibition [22]: 9.2% | inhibition [23]: 3.6% | inhibition [24]: 56% | inhibition [25]: 50% | inhibition [26]: 12% | inhibition [27]: 11% | inhibition [28]: 2.4% | residual binding, % of control [29]: 0.25% | inhibition [30]: 60% | inhibition [31]: 100% | inhibition [32]: 82% | inhibition [33]: 100% | inhibition [34]: 76% | inhibition [35]: 100% | inhibition [36]: 100% | level, % of control [37]: 0% | level, % of control [38]: 0% | % of control [39]: 0.25% | level, % of control [40]: 0.3% | level, % of control [41]: 89% | level, % of control [42]: 89% | level, % of control [43]: 22%

CCN1CCN(Cc2ccc(NC(=O)c3ccc(C)c(C#Cc4cccnc4)c3)cc2C(F)(F)F)CC1
residual binding, % of control [1]: 99% | residual binding, % of control [2]: 6.4% | residual binding, % of control [3]: 100% | residual binding, % of control [4]: 48% | residual binding, % of control [5]: 12% | residual binding, % of control [6]: 13% | residual binding, % of control [7]: 2.7% | residual binding, % of control [8]: 0.05% | residual binding, % of control [9]: 15% | residual binding, % of control [10]: 0% | residual binding, % of control [11]: 77% | residual binding, % of control [12]: 0% | residual binding, % of control [13]: 0.75% | residual binding, % of control [14]: 7.4% | residual binding, % of control [15]: 99% | residual binding, % of control [16]: 2.2% | residual binding, % of control [17]: 27% | residual binding, % of control [18]: 0% | residual binding, % of control [19]: 11% | residual binding, % of control [20]: 3.3% | residual binding, % of control [21]: 87% | inhibition [22]: 73% | inhibition [23]: 2.8% | inhibition [24]: 57% | inhibition [25]: 88% | inhibition [26]: 41% | inhibition [27]: 45% | inhibition [28]: 60% | residual binding, % of control [29]: 0.4% | inhibition [30]: 84% | inhibition [31]: 92% | inhibition [32]: 81% | inhibition [33]: 100% | inhibition [34]: 76% | inhibition [35]: 100% | inhibition [36]: 100% | level, % of control [37]: 0.05% | level, % of control [38]: 0% | % of control [39]: 0.2% | level, % of control [40]: 0.5% | level, % of control [41]: 100% | level, % of control [42]: 75% | level, % of control [43]: 85%
